# Experimental data reported in article PMC9118553, “In Vivo Bioconcentration of 10 Anionic Surfactants in Rainbow Trout Explained by In Vitro Data on Partitioning and S9 Clearance” (Environmental Science & Technology, 2022).
# Like-named read-outs stand apart in the source and are kept apart here.
# Key:
# [1] = In vivo bioconcentration experiment with a mixture of anionic surfactants, flow-through aquaria, 10 °C, pH 7.8; parameters: species or system rainbow trout; conditions: rainbow trout, whole fish homogenate, other: waterborne exposure in flow-through aquaria; for k el: read-out: Elimination rate constant kT (converted)
# Method in brief: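 Juvenile rainbow trout exposed to a 10-surfactant mixture for 4 days, then 7-day depuration, in flow-through aquaria at 10 °C, pH 7.8. Whole-fish homogenates and water analysed by LC-MS/MS against BEHP internal standard. kU, kT and BCF (=kU/kT) estimated by joint Bayesian model including water-concentration uncertainty.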
# [2] = tested on: rainbow trout; conditions: rainbow trout carcass; cited from earlier work
# [3] = parameters: method as in REACH dossier; conditions: method as noted in the cell (shake flask, solubility ratio, HPLC, BCFBAF, pH); ref REACH dossier; cited from earlier work
# [4] = ref REACH dossier; cited from earlier work
smiles,measurement,setting,value
"CCCCC(CC)COC(=O)CC(C(=O)OCC(CC)CCCC)S(=O)(=O)O (centres unmarked) [DOSS, bis(2-ethylhexyl)sulfosuccinate]",k el,"[1]; 26 μg L^–1, pH 7.8, determined using nominal concentrations in water",1.56e-05 s⁻¹
same,concentration at 97 h,"[1]; 26 μg L^–1, pH 7.8, elimination phase, 97 h, individual fish",57 ng/g
same,concentration at 98 h,"[1]; 26 μg L^–1, pH 7.8, elimination phase, 98 h, individual fish",47 ng/g
same,concentration at 103 h,"[1]; 26 μg L^–1, pH 7.8, elimination phase, 103 h, individual fish",35 ng/g
same,concentration at 128 h,"[1]; 26 μg L^–1, pH 7.8, elimination phase, 128 h, individual fish",13.9 ng/g
same,concentration at 2 h,"[1]; 26 μg L^–1, pH 7.8, exposure phase, 2 h, individual fish",8.5 ng/g
same,concentration at 3 h,"[1]; 26 μg L^–1, pH 7.8, exposure phase, 3 h, individual fish",14.9 ng/g
same,concentration at 6 h,"[1]; 26 μg L^–1, pH 7.8, exposure phase, 6 h, individual fish",36 ng/g
same,concentration at 24 h,"[1]; 26 μg L^–1, pH 7.8, exposure phase, 24 h, individual fish",66 ng/g
same,concentration at 48 h,"[1]; 26 μg L^–1, pH 7.8, exposure phase, 48 h, individual fish",48 ng/g
same,concentration at 72 h,"[1]; 26 μg L^–1, pH 7.8, exposure phase, 72 h, individual fish",50 ng/g
same,concentration at 96 h,"[1]; 26 μg L^–1, pH 7.8, exposure phase, 96 h, individual fish",84 ng/g
same,k el,"[1]; 26 μg L^–1, pH 7.8, from measured concentrations in water, Bayesian estimate, 95% credible interval in brackets",1.75e-05 s⁻¹
same,k el,"[1]; pH 7.8, measured concentrations in water, simpler estimation method (Text S3), 95% confidence intervals in brackets",1.78e-05 s⁻¹
same,BCF,[2],3.78 L kg^–1
same,LogKow,[3],2
same,Degradation information ~28d-sludge test (% degradable),[4],91.2-100%
